From ChEMBL document CHEMBL1201862, “PubChem BioAssay data set” (2004)
Activity calls are given as the source filed them. For most assays here, no stated cut-off is given here; in the data, actives have a measured EC50 and inactives only a lower limit.

Tests used:
BJ [1] = test: BJ-TERT-LT-ST fibroblast viability loss – cell-based, RAS-independent, luminescence, dose response (AID 1935); type: functional; settings: Homo sapiens;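 further: BJ fibroblasts immortalized with TERT plus LT and ST oncogenes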
[2] = target: T1, Zinc finger protein mex-5 (Caenorhabditis elegans, UniProt Q9XUB2); test: potency of MEX-5 RNA-binding blockers – biochemical, C. elegans, fluorescence polarization, dose response (AID 1960)
T1 sequence (Q9XUB2 whole entry): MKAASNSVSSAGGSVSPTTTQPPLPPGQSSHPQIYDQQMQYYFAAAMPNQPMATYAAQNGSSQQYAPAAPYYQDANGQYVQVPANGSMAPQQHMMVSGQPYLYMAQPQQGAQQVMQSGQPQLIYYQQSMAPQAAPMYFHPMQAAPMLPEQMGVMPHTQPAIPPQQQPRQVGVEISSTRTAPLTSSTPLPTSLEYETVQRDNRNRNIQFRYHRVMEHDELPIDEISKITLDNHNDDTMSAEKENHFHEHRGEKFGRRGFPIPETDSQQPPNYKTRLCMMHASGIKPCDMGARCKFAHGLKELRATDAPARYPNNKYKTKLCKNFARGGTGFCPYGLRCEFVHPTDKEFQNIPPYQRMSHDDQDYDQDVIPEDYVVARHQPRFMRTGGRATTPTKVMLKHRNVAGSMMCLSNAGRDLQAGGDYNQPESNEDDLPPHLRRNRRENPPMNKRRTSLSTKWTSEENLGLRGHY

BJ [3] = test: BJ-TERT fibroblast viability loss – cell-based, RAS-independent, luminescence, dose response (AID 1933); type: functional; settings: Homo sapiens
[4] = target: T2, RNA-binding protein pos-1 (Caenorhabditis elegans, UniProt G5EF15); test: disruptors of C. elegans POS-1 RNA interaction – biochemical, fluorescence polarization, dose response (AID 1964);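 further: purified POS-1 fused to maltose binding protein made in E. coli; potency of compounds blocking POS-1 binding to fluorescent RNA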
T2 sequence (G5EF15 whole entry): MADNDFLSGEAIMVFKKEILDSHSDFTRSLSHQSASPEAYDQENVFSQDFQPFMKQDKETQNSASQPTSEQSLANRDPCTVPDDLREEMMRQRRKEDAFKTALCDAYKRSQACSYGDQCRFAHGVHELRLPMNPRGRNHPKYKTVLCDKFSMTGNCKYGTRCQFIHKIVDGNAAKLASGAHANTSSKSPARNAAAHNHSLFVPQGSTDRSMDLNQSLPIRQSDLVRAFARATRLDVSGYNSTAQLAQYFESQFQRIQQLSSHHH

[5] = DRD fibroblast viability loss – cell-based, non-viral oncogenic, luminescence, dose response (AID 1934); type: functional; settings: Homo sapiens
BJ [6] = test: growth inhibition of engineered Ras-driven BJ cells – cell-based, alamar blue fluorescence, cherrypicked samples, dose response (AID 2631); type: functional; settings: Homo sapiens;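 further: confirmatory dose-response assay in RAS-dependent BJ fibroblasts engineered with TERT, LT and ST, with cytotoxicity read by fluorescence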
BJ [7] = test: cells; type: functional, cell-based; settings: Homo sapiens
[8] = target: T3, Endoribonuclease toxin MazF (Escherichia coli K-12, UniProt P0AE70); test: substrate-only fluorescence increase artefacts – biochemical, single-stranded RNase substrate, counter-screen for MazEF activator project, dose response (AID 588502); type: functional
T3 sequence (P0AE70 whole entry): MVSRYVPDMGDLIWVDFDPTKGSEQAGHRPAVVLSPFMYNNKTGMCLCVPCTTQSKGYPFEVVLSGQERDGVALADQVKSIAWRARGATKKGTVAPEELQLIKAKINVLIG

[9] = target: T3, Endoribonuclease toxin MazF; test: activation of MazEF endoribonuclease cleavage – biochemical, fluorescence, single-stranded RNA substrate, uHTS hits, dose response (AID 588481); type: functional
[10] = target: Photoreceptor-specific nuclear receptor (Homo sapiens, UniProt Q9Y5X4); type: functional, cell-based;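 further: CHO-S cells with Gal4-NCOR and VP16-NR2E3 two-hybrid luciferase reporter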
Melanocortin receptor 4 = Melanocortin receptor 4 (Homo sapiens, UniProt P32245); type: functional, cell-based;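 further: Cell-based assay with luminescence read-out, confirmatory dose-response testing for agonist activity of biased ligands at MC4R; human U2OS cells with tagged receptor and beta-arrestin; potency of agonists that increase receptor coupling to beta-arrestin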
[11] = A Cell Based Secondary Assay To Explore Cytotoxicity of Compounds that Sensitize Mycobacterium Tuberculosis to Beta-Lactam Antibiotics.; type: functional
cells [12] = type: functional, cell-based
[13] = luciferase reporter signal suppression in cells – H4 neuroglioma cells, luminescence, dose response (AID 1990); type: functional, cell-based
cells [14] = type: functional, cell-based; remark: listed apart in the source
[15] = alpha-synuclein stem-loop luciferase translation blockers – H4 neuroglioma cells, luminescence, confirmation (AID 1988); type: functional, cell-based
INS1 = test: INS-1E survival protection against cytokine death – cell-based, luminescence, retest, dose response (AID 449756); type: functional; settings: Rattus norvegicus;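 further: cell death triggered by IL-1 beta plus TNF-alpha plus IFN-gamma mixture; protective hits raise ATP signal compared with cytokine alone wells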
[16] = Luminescence Cell-Based Dose Response HTS to Identify Inhibitors of 5'UTR Stem-Loop Driven Prion Protein mRNA Translation in H4 Neuroglioblastoma Cells. [Related pubchem assays: 1827 (Project Summary), 1813 (Primary HTS)]; type: functional
Protein Wnt-3a = Protein Wnt-3a (Mus musculus, UniProt P27467); test: antagonism of Wnt3a pathway luciferase reporter – Wnt-LIGHT cells, luminescence, selectivity assay for Gli-SUFU antagonist project, dose response (AID 651570); type: functional; settings: read-out: IC50_Mean;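 further: Wnt-LIGHT reporter cells stimulated with conditioned medium from Wnt3a-producing cells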
Protein Wnt-3a, sequence (P27467 whole entry): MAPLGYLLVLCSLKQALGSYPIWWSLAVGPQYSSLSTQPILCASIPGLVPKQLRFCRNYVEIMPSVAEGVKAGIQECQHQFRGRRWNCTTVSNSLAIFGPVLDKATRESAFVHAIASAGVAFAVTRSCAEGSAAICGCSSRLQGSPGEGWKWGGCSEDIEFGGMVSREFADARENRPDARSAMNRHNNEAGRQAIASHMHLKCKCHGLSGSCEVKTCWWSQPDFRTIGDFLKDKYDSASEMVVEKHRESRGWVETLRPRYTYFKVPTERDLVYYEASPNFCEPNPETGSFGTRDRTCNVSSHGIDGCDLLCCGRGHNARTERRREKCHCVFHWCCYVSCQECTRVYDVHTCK

Photoreceptor-specific nuclear receptor, sequence (Q9Y5X4 whole entry, the tested form may be a part): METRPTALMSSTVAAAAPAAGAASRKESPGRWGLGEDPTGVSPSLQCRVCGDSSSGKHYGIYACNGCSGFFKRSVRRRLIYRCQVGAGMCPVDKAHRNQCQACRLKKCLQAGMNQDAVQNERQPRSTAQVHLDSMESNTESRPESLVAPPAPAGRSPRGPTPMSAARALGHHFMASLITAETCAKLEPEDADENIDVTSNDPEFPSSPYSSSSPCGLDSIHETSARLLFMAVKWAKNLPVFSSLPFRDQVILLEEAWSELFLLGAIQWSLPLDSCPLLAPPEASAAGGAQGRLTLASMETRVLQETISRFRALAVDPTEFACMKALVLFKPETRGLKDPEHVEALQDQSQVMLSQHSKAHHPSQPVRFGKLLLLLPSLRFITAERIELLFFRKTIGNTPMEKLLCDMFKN
Melanocortin receptor 4, sequence (P32245 whole entry): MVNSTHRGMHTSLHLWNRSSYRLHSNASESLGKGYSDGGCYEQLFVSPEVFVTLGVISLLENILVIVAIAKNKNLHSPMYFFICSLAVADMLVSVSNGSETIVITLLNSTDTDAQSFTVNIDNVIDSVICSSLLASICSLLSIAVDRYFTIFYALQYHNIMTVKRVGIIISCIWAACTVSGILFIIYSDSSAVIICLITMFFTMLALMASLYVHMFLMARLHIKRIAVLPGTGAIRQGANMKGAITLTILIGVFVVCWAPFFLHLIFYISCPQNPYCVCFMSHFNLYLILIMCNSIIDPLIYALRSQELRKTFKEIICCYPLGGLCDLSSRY

SMILES: COc1ccc(N2C(=O)/C(=C/c3ccc(C)o3)C(=O)NC2=S)cc1
- EC50 (BJ [1]): > 75 µM (inconclusive)
- EC50 [2]: > 300 µM (not active)
- EC50 (BJ [3]): > 150 µM (not active)
- EC50 [4]: > 300 µM (not active)
- EC50 [5]: 15.9 µM (active)
- EC50 (BJ [6]): > 133 µM (inactive)
- EC50 (BJ [7]): 17 µM (active)

SMILES: COc1ccc(NC(=O)CN(C)S(=O)(=O)c2ccccc2)c([N+](=O)[O-])c1
- EC50 [8]: > 99 µM (inactive)
- EC50 [9]: > 99 µM (inactive)

SMILES: COC(CNC(=O)CSCc1nc(-c2ccc(SC)cc2)oc1C)OC
- IC50 [10]: 2.23 µM (active)

SMILES: C=C(C(=O)c1ccccc1)C(NC(C)(C)C)c1ccccc1 (stereo not given)
- IC50 [10]: 2.01 µM (active)

SMILES: Clc1ccc(/C=N/NC2=Nc3cccc4cccc2c34)cc1
- EC50 (Melanocortin receptor 4): > 89.1 µM (inactive)
- CC50 [11]: 21.4 µM (active)

SMILES: C/C(=N\Nc1nc2ccccc2[nH]1)c1ccccn1
- EC50 (BJ [1]): 1.38 µM (inconclusive)
- EC50 (cells [12]): 13.8 µM (active)
- EC50 [13]: 0.306 µM (active)
- EC50 (BJ [3]): 0.672 µM (active)
- EC50 (cells [14]): 6.03 µM (active)
- EC50 [15]: 0.107 µM (active)
- AC50 (INS1): < 0.195 µM (active)
- EC50 [5]: 2.24 µM (active)
- EC50 (BJ [6]): < 0.104 µM (active)
- EC50 [16]: 0.154 µM (active)
- EC50 (BJ [7]): 4.7 µM (active)

SMILES: Brc1ccc(-c2cn3c([n+]2-c2ccccc2)SCC3)cc1
- IC50 (Protein Wnt-3a): 17.2 µM (active)
